The target in series [1] is Tyrosine-protein kinase Fyn (Homo sapiens, UniProt P06241). In words: Inhibition of human recombinant full-length Fyn using Src substrate peptide after 15 mins incubation by MicroBeta liquid scintillation counting analysis.
Series [2] concerns Liver microsome. Briefly: Drug formation in human liver microsomes treated with 1-(2-Chloro-2-phenylethyl)-3-(4-methyoxyphenyl)-1H-pyrazolo-[3,4-d]pyrimidin-4-amine measured after 1 hr by LC-UV-MS analysis. Format: ADME. (In general: Microsomes from liver hold many membrane-bound enzymes, among them those of drug oxidation.)
Series [3] has as its system Liver microsome. Briefly: Drug formation in human liver microsomes treated with 1-(2-Chloro-2-phenylethyl)-3-(4-methylphenyl)-1H-pyrazolo[3,4-d]pyrimidin-4-amine measured after 1 hr by LC-UV-MS analysis. The series is classed as ADME.
Series [4] has as its system Liver microsome. In words: Drug formation in human liver microsomes treated with 3-(4-Chlorophenyl)-1-(2-chloro-2-phenylethyl)-1H-pyrazolo[3,4-d]pyrimidin-4-amine measured after 1 hr by LC-UV-MS analysis. The series is classed as ADME.
Series [5] relates to Liver microsome. In words: Drug formation in human liver microsomes treated with 1-(2-Chloro-2-phenylethyl)-3-phenyl-1H-pyrazolo[3,4-d]-pyrimidin-4-amine hydrocloride measured after 1 hr by LC-UV-MS analysis. Format: ADME.
Series [6] has as its system Liver microsome. In words: Drug formation in human liver microsomes treated with 1-(2-Chloro-2-phenylethyl)-3-(4-fluorophenyl)-1H-pyrazolo[3,4-d]pyrimidin-4-amine measured after 1 hr by LC-UV-MS analysis. The series is classed as ADME.
The nature of series [7]: Permeability of the compound by PAMPA-LC-UV analysis. The series is classed as physicochemical.
Series [8] can be described thus: Permeability of the compound by BBB-PAMPA-LC-UV analysis. Format: physicochemical. (In general: The PAMPA barrier holds no transporters, so it reflects passive diffusion.)
Series [9] in a line: Metabolic stability in human liver microsomes measured after 1 hr in presence of NADPH generating system. Format: ADME. Particulars: read-out: Stability; call rule not given here.
Series [10] is described as follows: Cytotoxicity against human fibroblast at 2 uM after 48 hrs. Format: cell-based.
The test system of series [11] is K562. In words: Antiproliferative activity against human K562 cells assessed as vitality after 72 hrs by automatic cell counting analysis. To be noted: K562, 72 h. The series is classed as functional, cell-based.
Series [12] deals with MDA-MB-231. Briefly: Anticancer activity against human MDA-MB-231 cells assessed as cell growth inhibition after 20 to 70 hrs by Real-time RTCA iCELLgence system. The series is classed as functional, cell-based.
A short description of series [13]: Induction of apoptosis in Ph+ CML patient CD34+ early hematopoietic progenitor cells assessed as increase in apoptotic level at 2 uM after 48 hrs by Annexin V-FITC/Propidium iodide staining based FACSCalibur flow cytometry. The series is classed as functional, Homo sapiens. A general note: Flow cytometry measures light scatter and fluorescence of single cells or particles in a stream.

The nature of series [14]: Anticancer activity against human U87 cells assessed as cell growth inhibition after 20 to 70 hrs by Real-time RTCA iCELLgence system. To be noted: U-87 MG. The series is classed as functional, cell-based, U-87MG ATCC.
Series [15] has as its system K562. Briefly: Induction of apoptosis in human K562 cells assessed as accumulation of hypodiploid cells at 0.1 uM.

Tyrosine-protein kinase Fyn, sequence (P06241 whole entry): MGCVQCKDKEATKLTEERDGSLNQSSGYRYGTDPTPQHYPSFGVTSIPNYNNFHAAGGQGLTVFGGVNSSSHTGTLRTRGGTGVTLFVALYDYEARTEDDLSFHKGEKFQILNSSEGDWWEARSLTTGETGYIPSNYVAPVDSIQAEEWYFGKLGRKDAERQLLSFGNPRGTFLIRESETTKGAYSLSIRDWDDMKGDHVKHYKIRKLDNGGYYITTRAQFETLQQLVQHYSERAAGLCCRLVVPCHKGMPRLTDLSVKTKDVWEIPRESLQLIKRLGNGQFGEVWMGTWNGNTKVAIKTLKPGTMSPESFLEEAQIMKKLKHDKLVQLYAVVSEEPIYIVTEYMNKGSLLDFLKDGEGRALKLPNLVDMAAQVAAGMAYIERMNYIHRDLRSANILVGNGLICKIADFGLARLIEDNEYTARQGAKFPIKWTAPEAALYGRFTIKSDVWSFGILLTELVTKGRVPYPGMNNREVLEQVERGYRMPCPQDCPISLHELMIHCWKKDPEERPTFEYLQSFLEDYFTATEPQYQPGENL

Turning to `COC(Cn1nc(-c2ccccc2)c2c(N)nc(SC)nc21)c1ccccc1` (stereo not drawn), the inhibition constant Ki (as a rule, a dissociation constant, usually derived from enzyme kinetics or from competition with a known ligand) in series [1] (read-out: Ki) is 10000 nM.
On the same count and under the same terms, for `CCOc1ccc(-c2[nH]ncc2CN2CCN(S(=O)(=O)N3CCCC3)CC2)cc1` the value was 2250 nM.
Still for that read-out and setting: for `CC(Cn1nc(-c2ccc(Cl)cc2)c2c(N)ncnc21)c1ccccc1` (stereo not drawn) the value was 780 nM.
Regarding `Nc1ncnc2c1c(-c1ccc(O)cc1)nn2CC(Cl)c1ccccc1` (stereo not drawn), the Drug metabolism entry in [2] is listed as “metabolite_detected”.
For the compound `Nc1ncnc2c1c(-c1ccccc1)nn2CC(O)c1ccccc1` (stereo not drawn), the Drug metabolism entry in series [2], in [3], in [4], in series [5] and in series [6] was “metabolite_detected” throughout.
With `CCc1ccc2[nH]c(=O)c(CN(Cc3ccc4c(c3)OCO4)C(=O)Nc3ccc(F)cc3)cc2c1`, the Ki in series [1] (read-out: Ki) turned out to be 2100 nM.
For `ClC(Cn1ncc2c(NCCc3ccccc3)nc(SCCN3CCOCC3)nc21)c1ccccc1` (stereo not drawn), the Ki entry in series [1] was “Not Active”.
As for `CCCCSc1nc(NCCc2ccccc2)c2cnn(CC(Cl)c3ccccc3)c2n1` (stereo not drawn), the inhibition constant (Ki) result in series [1] is reported as “Not Active”.
As to `ClC(Cn1ncc2c(NCCc3ccccc3)nc(SC3CCCC3)nc21)c1ccccc1` (stereo not drawn), the Ki entry in series [1] was “Not Active”.
`Nc1ncnc2c1c(-c1ccc(Cl)cc1)nn2CC(Cl)c1ccccc1` (stereo not drawn): the figures for the Papp in series [7] and in series [8] were 9.9 ×10⁻⁶ cm/s and 8.4 ×10⁻⁶ cm/s, respectively. Besides, in [9], the remaining at 1 h was found to be 85.2%. The values for the Activity entry in series [10] and in series [13] were “Non-toxic” and 35%, respectively. Besides, the figures for the half-inhibitory concentration (IC50) in series [11], in [12] and in series [14] were 560 nM, 3700 nM and 74 nM, respectively.
Take `Cc1ccc(-c2cc(-c3ccccc3)c3c(N)c(C(=O)Nc4ccc(F)cc4)sc3n2)cc1`: the Ki result in series [1] was “Not Active”.
Regarding `CC(=O)c1ccc(-c2nn(CC(C)c3ccccc3)c3ncnc(N)c23)cc1` (stereo not drawn), in series [1] (read-out: Ki), the Ki amounted to 10000 nM.
With `Cc1ccc(-c2nn(CC(Cl)c3ccccc3)c3ncnc(N)c23)cc1` (stereo not drawn), the Papp (in general, the rate of passage across a membrane or cell layer, normalised by area and donor concentration) in series [7] amounted to 10.9 ×10⁻⁶ cm/s; in series [8] it was 11.5 ×10⁻⁶ cm/s. Moreover, in series [9], the remaining at 1 h stood at 90%. Also, the figures for the Activity in [15], in [10] and in [13] were 50%, “Non-toxic” and 30%, respectively. The IC50 (in general, the concentration that inhibits the measured activity by half) in series [11] amounted to 300 nM; in [12], 8300 nM; in [14], 780 nM.
As to `Nc1ncnc2c1c(-c1ccc(F)cc1)nn2CC(Cl)c1ccccc1` (stereo not drawn), the results for the apparent permeability coefficient (Papp) in series [7] and in [8] were 16.5 ×10⁻⁶ cm/s and 12.9 ×10⁻⁶ cm/s, respectively. The remaining at 1 h in [9] was found to be 95.7%. Besides, the IC50 in [11] was found to be 12600 nM.
On to `CNc1nc(SC)nc2c1c(-c1ccccc1)nn2CCc1ccccc1`, for which the Ki in series [1] (read-out: Ki) is 10000 nM.
Take `Fc1cccc(Nc2nc(SC3CCCC3)nc3c2cnn3CC(Cl)c2ccccc2)c1` (stereo not drawn): the Ki entry in series [1] was “Not Active”.
`CCC(C)Sc1nc(NCc2ccccc2)c2cnn(CC(Cl)c3ccccc3)c2n1` (stereo not drawn): in series [1], the inhibitory constant (Ki) entry is given as “Not Active”.
Turning to `Nc1ncnc2c1c(-c1ccccc1)nn2CC(Cl)c1ccccc1` (stereo not drawn), the Papp in series [7] came out at 12.8 ×10⁻⁶ cm/s; in [8] it was 9.5 ×10⁻⁶ cm/s. Besides, the remaining at 1 h in series [9] was found to be 78.9%. The Ki in [1] (read-out: Ki) turned out to be 900 nM.
For `COc1ccc(-c2nn(CC(Cl)c3ccccc3)c3ncnc(N)c23)cc1` (stereo not drawn), the Papp amounted to 17.5 ×10⁻⁶ cm/s in series [7] and 14.5 ×10⁻⁶ cm/s in [8]. Moreover, the remaining at 1 h in series [9] was 95.6%.
Regarding `Clc1cccc(Nc2nc(SC3CCCC3)nc3c2cnn3CC(Cl)c2ccccc2)c1` (stereo not drawn), in [1], the Ki result was “Not Active”.
The same measure, in the same setting: with `CCC(C)Sc1nc(NCCc2ccccc2)c2cnn(CC(Cl)c3ccccc3)c2n1` (stereo not drawn) the entry was “Not Active”.
For `Nc1ncnc2c1c(-c1ccccc1)nn2CC(=O)c1ccccc1`, the Drug metabolism result in [2], in [3], in series [4], in series [5] and in series [6] was “metabolite_detected” each time.

The values above are taken from ChEMBL document CHEMBL3576773, “Studies on the ATP Binding Site of Fyn Kinase for the Identification of New Inhibitors and Their Evaluation as Potential Agents against Tauopathies and Tumors” (J Med Chem, 2015).
